The numbers were not newly measured in article PMC7905424 (Biochemistry. Biokhimiia, 2021), which cites them from elsewhere.

Where two headings read alike, the source gives them in different places.

Data set [1] has as its system pro-inflammatory cytokine IL-6. To be noted: COVID-19 patients.

Usually Kd stands for the free concentration of one partner at which half of the binding sites on the other are occupied at equilibrium, for simple one-to-one binding. As to ACE2, the Kd at SARS-CoV-2 S protein (read-out: Kd for ACE2, lower end of literature range) was 0.0012 µM; on SARS-CoV-2 S protein (read-out: Kd for ACE2, upper end of literature range), 0.095 µM. As for low-molecular-weight heparin, the “content of the pro-inflammatory cytokine IL-6” value in data set [1] is listed as “pronounced decrease”.
